Measurements from US9409952B2, “Peptide-compound cyclization method” (Chugai Seiyaku Kabushiki Kaisha, priority 2011, dated 2016).
Read-outs that look alike come from different tables or passages of the source. Positions of bridges follow the written chain, without caps; N, C: chain ends. Non-standard residues stand in square brackets, D forms with d. Residues, ends and D or L forms follow the SMILES beside them. *: point of attachment. Ala(4-thiazolyl) = N[C@@H](Cc1cscn1)C(=O)O; Tyr(3-F) = N[C@@H](Cc1ccc(O)c(F)c1)C(=O)O; Arg(Me2s) = CN=C(NC)NCCC[C@H](N)C(=O)O; Met(O2) = CS(=O)(=O)CC[C@H](N)C(=O)O; Lys(Me2) = CN(C)CCCC[C@H](N)C(=O)O; NMeF = CN[C@@H](Cc1ccccc1)C(=O)O; 3Pal = N[C@@H](Cc1cccnc1)C(=O)O; NMeL = CN[C@@H](CC(C)C)C(=O)O; NMeS = CN[C@@H](CO)C(=O)O; NMeA = CN[C@@H](C)C(=O)O; Piperidide = C1CCN(*)CC1; β3hA = C[C@H](N)CC(=O)O; Sar = CNCC(=O)O

Columns and labels:
[1] = PAMPA (parallel artificial membrane permeability assay); type: in vitro ADME; conditions: for Papp at 18 hours, 50 µM: PAMPA
Summary of the method: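 Artificial membrane was 10% (w/v) egg lecithin plus 0.5% (w/v) cholesterol in dodecane on a PVDF filter. A 10 mM DMSO stock was added at 0.5% (v/v) to donor buffer (50 mM MOPSO, pH 6.5, 5.0% glycocholic acid). After 18 h at 37 °C, LC/MS or LC/UV gave donor and acceptor levels for Pe.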

[2] = Metabolic stability in human hepatic microsome; type: in vitro ADME; conditions: microsomes
[3] = pH 7.4, human hepatic microsome, NADPH(+), read-out: CL NADPH(+)
[4] = membrane permeation rate (Pe), 50 mM MOPSO buffer pH 6.5 with 5.0% glycocholic acid, 37° C., 18 hours, read-out: iPAMPA Pe

Structure (SMILES)	Papp at 18 hours, 50 µM ([1]; pH 6.5) [×10⁻⁶ cm/s]	microsomal CLint at 1 uM ([2]; human, pH 7.4, CL NADPH(+)) [µL/min/mg]	iPAMPA Pe ([1]; membrane permeation rate (Pe), 50 mM MOPSO buffer pH 6.5 with 5.0% glycocholic acid, 37° C., 18 hours)	microsomal CLint at 1 uM [2, 3] [µL/min/mg]	Papp at 18 hours, 50 µM [1, 4] [×10⁻⁶ cm/s]
CC(C)C[C@@H]1NC(=O)[C@H](CCC(=O)O)NC(=O)[C@@H]2CCCN2C(=O)[C@H](CC(C)C)NC(=O)[C@H](CC(C)C)N(C)C(=O)[C@H](Cc2ccccc2)NC(=O)[C@H](C)N(C)C(=O)[C@H](CC(C)C)N(C)C(=O)[C@H](Cc2ccccc2)NC(=O)CN(C)C(=O)C[C@@H](C(=O)N(C)[C@@H](Cc2ccccc2)C(=O)N[C@@H](C)C(=O)N2CCCCC2)NC1=O [DP-595] ([Sar]F[NMeL][NMeA]F[NMeL]LPELD[NMeF]A-Piperidide; lactam N-11)	4.9	9			
C/N=C(\NC)NCCC[C@@H]1NC(=O)[C@@H]2CCCN2C(=O)[C@H](CC(C)C)NC(=O)[C@H](CC(C)C)N(C)C(=O)[C@H](Cc2ccccc2)NC(=O)CN(C)C(=O)[C@H](CC(C)C)N(C)C(=O)[C@H](Cc2ccccc2)NC(=O)CN(C)C(=O)C[C@@H](C(=O)N(C)[C@@H](Cc2ccccc2)C(=O)N[C@@H](C)C(=O)N2CCCCC2)NC(=O)[C@H](CC(C)C)NC1=O [DP-597] ([Sar]F[NMeL][Sar]F[NMeL]LP[Arg(Me2s)]LD[NMeF]A-Piperidide; lactam N-11)	1.7	12			
CC(C)C[C@@H]1NC(=O)[C@H](Cc2cccnc2)NC(=O)[C@@H]2CCCN2C(=O)[C@H](C)NC(=O)[C@H](CC(C)C)N(C)C(=O)[C@H](Cc2ccccc2)NC(=O)[C@H](C)N(C)C(=O)[C@H](CC(C)C)N(C)C(=O)[C@H](Cc2ccccc2)NC(=O)[C@H](C)N(C)C(=O)C[C@@H](C(=O)N(C)[C@@H](Cc2ccccc2)C(=O)N[C@@H](C)C(=O)N2CCCCC2)NC1=O [DP-599] ([NMeA]F[NMeL][NMeA]F[NMeL]AP[3Pal]LD[NMeF]A-Piperidide; lactam N-11)	28	84			
CC(C)C[C@@H]1NC(=O)[C@H](Cc2cccnc2)NC(=O)[C@H](Cc2ccccc2)N(C)C(=O)[C@H](CC(C)C)NC(=O)[C@H](CC(C)C)N(C)C(=O)[C@H](Cc2ccccc2)NC(=O)[C@H](CC(C)C)N(C)C(=O)[C@H](CC(C)C)N(C)C(=O)[C@H](Cc2ccccc2)NC(=O)CN(C)C(=O)C[C@@H](C(=O)N(C)[C@@H](Cc2ccccc2)C(=O)N[C@@H](C)C(=O)N2CCCCC2)NC1=O [DP-600] ([Sar]F[NMeL][NMeL]F[NMeL]L[NMeF][3Pal]LD[NMeF]A-Piperidide; lactam N-11)			1.0E−07	12	
CC(C)C[C@@H]1NC(=O)[C@H](CC(C)C)N(C)C(=O)[C@H](CC(C)C)N(C)C(=O)[C@H](CC(C)C)NC(=O)[C@H](Cc2ccccc2)N(C)C(=O)[C@H](CCS(C)(=O)=O)NC(=O)[C@H](CC(C)C)N(C)C(=O)[C@H](Cc2ccccc2)NC(=O)[C@H](C)NC(=O)C[C@@H](C(=O)N(C)[C@@H](Cc2ccccc2)C(=O)N[C@@H](C)C(=O)N2CCCCC2)NC1=O [DP-607] (AF[NMeL][Met(O2)][NMeF]L[NMeL][NMeL]LD[NMeF]A-Piperidide; lactam N-10)				2	1.2
CC(C)C[C@@H]1NC(=O)[C@H](CC(C)C)N(C)C(=O)[C@H](C)N(C)C(=O)[C@@H](C(C)C)NC(=O)C[C@@H](C(=O)N2CCCCC2)NC(=O)[C@H](CCC(N)=O)NC(=O)[C@H](CC(C)C)N(C)C(=O)CN(C)C(=O)[C@H](CC(C)C)N(C)C(=O)[C@H](Cc2ccccc2)NC(=O)[C@H](Cc2ccccc2)N(C)C1=O [DP-617] ([dV][NMeA][NMeL]L[NMeF]F[NMeL][Sar][NMeL]QD-Piperidide; lactam N-11)				30	29
CC(C)C[C@@H]1NC(=O)[C@H](CC(C)C)N(C)C(=O)[C@H](C)N(C)C(=O)[C@@H](C(C)C)NC(=O)C[C@@H](C(=O)N2CCCCC2)NC(=O)[C@H](CCC(=O)N(C)C)NC(=O)[C@H](CC(C)C)N(C)C(=O)[C@H](C)N(C)C(=O)[C@H](CC(C)C)N(C)C(=O)[C@H](Cc2ccccc2)NC(=O)[C@H](Cc2ccccc2)N(C)C1=O [DP-618] ([dV][NMeA][NMeL]L[NMeF]F[NMeL][NMeA][NMeL]E(NMe2)D-Piperidide; lactam N-11)				39	28
CC(C)C[C@@H]1NC(=O)[C@H](CC(C)C)N(C)C(=O)[C@H](C)N(C)C(=O)[C@@H](C(C)C)NC(=O)C[C@@H](C(=O)N2CCCCC2)NC(=O)[C@H]([C@@H](C)O)NC(=O)[C@H](C)N(C)C(=O)[C@H](C)N(C)C(=O)[C@H](CC(C)C)N(C)C(=O)[C@H](Cc2ccc(O)c(F)c2)NC(=O)[C@H](Cc2ccccc2)N(C)C1=O [DP-619] ([dV][NMeA][NMeL]L[NMeF][Tyr(3-F)][NMeL][NMeA][NMeA]TD-Piperidide; lactam N-11)				29	12
CC(C)C[C@@H]1NC(=O)[C@H](CC(C)C)N(C)C(=O)[C@H](C)N(C)C(=O)[C@@H](C(C)C)NC(=O)C[C@@H](C(=O)N2CCCCC2)NC(=O)[C@H](CCS(C)(=O)=O)NC(=O)[C@H](CC(C)C)N(C)C(=O)[C@H](C)N(C)C(=O)[C@H](CC(C)C)N(C)C(=O)[C@H](Cc2ccccc2)NC(=O)[C@H](Cc2ccccc2)N(C)C1=O [DP-620] ([dV][NMeA][NMeL]L[NMeF]F[NMeL][NMeA][NMeL][Met(O2)]D-Piperidide; lactam N-11)				26	24
CC(C)C[C@H]1C(=O)N(C)[C@@H](Cc2ccccc2)C(=O)N(C)[C@@H](CC(C)C)C(=O)N[C@@H]([C@@H](C)O)C(=O)N[C@H](C(=O)N2CCCCC2)CC(=O)N[C@H](C(C)C)C(=O)N(C)[C@@H](C)C(=O)N(C)[C@@H](CC(C)C)C(=O)N[C@@H](CCS(C)(=O)=O)C(=O)N(C)[C@@H](Cc2ccccc2)C(=O)N[C@@H](Cc2ccccc2)C(=O)N1C [DP-621] ([dV][NMeA][NMeL][Met(O2)][NMeF]F[NMeL][NMeF][NMeL]TD-Piperidide; lactam N-11)				11	21
CC(C)C[C@@H]1NC(=O)[C@H](CC(C)C)N(C)C(=O)[C@H](C)N(C)C(=O)[C@@H](C(C)C)NC(=O)C[C@@H](C(=O)N2CCCCC2)NC(=O)[C@H](Cc2cscn2)NC(=O)[C@H](C)N(C)C(=O)[C@H](C)N(C)C(=O)[C@H](C)N(C)C(=O)[C@H](Cc2ccccc2)NC(=O)[C@H](Cc2ccccc2)N(C)C1=O [DP-624] ([dV][NMeA][NMeL]L[NMeF]F[NMeA][NMeA][NMeA][Ala(4-thiazolyl)]D-Piperidide; lactam N-11)				30	24
CC(C)C[C@@H]1NC(=O)[C@H](CC(C)C)N(C)C(=O)[C@H](C)N(C)C(=O)[C@@H](C(C)C)NC(=O)C[C@@H](C(=O)N2CCCCC2)NC(=O)[C@H]([C@@H](C)O)NC(=O)[C@H](Cc2ccccc2)N(C)C(=O)[C@H](C)N(C)C(=O)[C@H](CC(C)C)N(C)C(=O)[C@H](Cc2cscn2)NC(=O)[C@H](Cc2ccccc2)N(C)C1=O [DP-625] ([dV][NMeA][NMeL]L[NMeF][Ala(4-thiazolyl)][NMeL][NMeA][NMeF]TD-Piperidide; lactam N-11)				27	26
CNC(=O)CC[C@@H]1NC(=O)[C@H](CC(C)C)N(C)C(=O)[C@H](C)N(C)C(=O)[C@H](CC(C)C)N(C)C(=O)[C@H](Cc2ccccc2)NC(=O)[C@H](Cc2ccccc2)N(C)C(=O)[C@H](CC(C)C)NC(=O)[C@H](CC(C)C)N(C)C(=O)[C@H](C)N(C)C(=O)[C@@H](C(C)C)NC(=O)C[C@@H](C(=O)N2CCCCC2)NC1=O [DP-626] ([dV][NMeA][NMeL]L[NMeF]F[NMeL][NMeA][NMeL]E(NHMe)D-Piperidide; lactam N-11)				28	36
CNC(=O)CC[C@@H]1NC(=O)[C@H](CC(C)C)N(C)C(=O)[C@H](C)N(C)C(=O)[C@@H](C(C)C)NC(=O)C[C@@H](C(=O)N2CCCCC2)NC(=O)[C@H]([C@@H](C)O)NC(=O)[C@H](C)N(C)C(=O)CN(C)C(=O)[C@H](CC(C)C)N(C)C(=O)[C@H](Cc2ccccc2)NC(=O)[C@H](Cc2ccccc2)N(C)C1=O [DP-627] ([dV][NMeA][NMeL]E(NHMe)[NMeF]F[NMeL][Sar][NMeA]TD-Piperidide; lactam N-11)				9	2.4
CC(C)C[C@H]1C(=O)N(C)[C@@H](CC(C)C)C(=O)N[C@H](C(=O)N(C)[C@@H](Cc2ccccc2)C(=O)N[C@@H](C)C(=O)N2CCCCC2)CC(=O)N[C@H](C(C)C)C(=O)N(C)[C@@H](C)C(=O)N(C)[C@@H](Cc2ccccc2)C(=O)N(C)[C@@H](C)C(=O)N[C@@H](CCCCN(C)C)C(=O)N(C)CC(=O)N[C@@H](C(C)C)C(=O)N1C [DP-631] ([dV][NMeA][NMeF][NMeA][Lys(Me2)][Sar]V[NMeL][NMeL]D[NMeF]A-Piperidide; lactam N-10)				5	1.6
CC(C)C[C@@H]1NC(=O)[C@H](CO)N(C)C(=O)[C@H](CC(C)C)N(C)C(=O)[C@H](CC(C)C)N(C)C(=O)[C@H](CC(C)C)N(C)C(=O)[C@@H](C)NC(=O)C[C@H](C)NC(=O)[C@H](CC(C)C)N(C)C(=O)[C@H](CC(C)C)NC(=O)[C@H](CC(C)C)N(C)C(=O)CN(C)C1=O [DP-639] (cyclo(L[NMeL][β3hA][dA][NMeL][NMeL][NMeL][NMeS]L[Sar][NMeL]))				134	33
